Experimental data taken from paper PMC10198183 (Frontiers in drug discovery, 2022).
In brackets after ≈: the same amount, converted by molar mass. Like-named read-outs stand apart in the source and are kept apart here.

Tests used:
C. albicans = assay: Broth microdilution susceptibility test (CLSI M27-A4), C. albicans; format: cell-based; conditions: RPMI 1640, 30 °C, 24–48 h, mean of triplicate; for MIC: read-out: MIC75 C. albicans
Description: (§1) Broth microdilution susceptibility test: The minimum inhibitory concentrations (MIC75) were determined by the broth microdilution method according to the Clinical and Laboratory Standards Institute (CLSI) M27-A4 standard ([CLSI, 2017])). Briefly, a suspension of C. albicans or C. glabrata culture (~0.5–2.5 × 10^3 cells/ml) was resuspended in RPMI 1640 media (Fisher Catalog number 11875093). The resuspended culture was further incubated with 100 μl of two-fold serially diluted test compounds (100–0.8 μM and 1.0 μM to 7 nM) at 30 °C for 24–48 h. Positive and negative control (wells without antifungal agents and wells without yeast) were conducted. Increased optical density (OD) corresponds to the Candida growth and was quantified by comparison with untreated Candida control samples. The MIC75 of test compounds was determined visually and spectrophotometrically (OD600) after 24–48 h. Experiments were run in triplicate, and data was reported as a mean.

C. glabrata = assay: Broth microdilution susceptibility test (CLSI M27-A4), C. glabrata; format: cell-based; conditions: RPMI 1640, 30 °C, 24–48 h, mean of triplicate; for MIC: read-out: MIC75 C. glabrata
Description: as §1

human Cyp3A4 = human Cyp3A4 (Homo sapiens, UniProt P08684); conditions: for IC50: read-out: CYP 3A4 IC50, human Cyp3A4 supersomes, 2 μM midazolam, 30 min at 37°C
Sequence of human Cyp3A4 (P08684 2-503 limits assumed): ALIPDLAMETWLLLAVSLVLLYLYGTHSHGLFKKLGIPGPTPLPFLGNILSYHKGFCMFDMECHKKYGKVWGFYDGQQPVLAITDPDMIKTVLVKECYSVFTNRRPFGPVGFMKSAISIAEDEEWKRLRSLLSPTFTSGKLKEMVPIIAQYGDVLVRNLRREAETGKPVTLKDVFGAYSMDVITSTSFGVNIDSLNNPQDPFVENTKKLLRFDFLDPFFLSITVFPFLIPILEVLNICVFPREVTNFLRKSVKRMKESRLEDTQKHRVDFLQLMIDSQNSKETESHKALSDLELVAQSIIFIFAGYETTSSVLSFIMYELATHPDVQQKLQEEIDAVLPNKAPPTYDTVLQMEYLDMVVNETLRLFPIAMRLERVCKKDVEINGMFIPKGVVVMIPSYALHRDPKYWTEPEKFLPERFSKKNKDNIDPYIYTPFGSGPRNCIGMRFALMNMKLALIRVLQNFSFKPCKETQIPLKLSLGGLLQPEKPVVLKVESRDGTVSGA

SMILES	MIC (C. glabrata)	MIC (C. albicans)	also measured
CC(=O)N1CCN(c2ccc(OC[C@H]3CO[C@](Cn4ccnc4)(c4ccc(Cl)cc4Cl)O3)cc2)CC1 (racemic) [Entry 2, (±)-Ketoconazole, reference compound]	0.5 µM (≈ 0.266 µg/mL)		MIC (C. albicans; Candida albicans): 0.25 µM (≈ 0.133 µg/mL); MIC (C. glabrata; Nakaseomyces glabratus): 0.25 µM (≈ 0.133 µg/mL)
C[C@@H]1[C@H](O)[C@@H](C)/C=C/C=C/C=C/C=C/C=C/C=C/C=C/[C@H](O[C@@H]2O[C@H](C)[C@@H](O)[C@H](N)[C@@H]2O)C[C@@H]2O[C@](O)(C[C@@H](O)C[C@@H](O)[C@H](O)CC[C@@H](O)C[C@@H](O)CC(=O)O[C@H]1C)C[C@H](O)[C@H]2C(=O)O [Amphotericin B, reference compound]			MIC (C. albicans; Candida albicans): 0.25 µM (≈ 0.231 µg/mL); MIC (C. glabrata; Nakaseomyces glabratus): 0.25 µM (≈ 0.231 µg/mL)
CS(=O)(=O)N1CCN(c2ccc(OC[C@@H]3CO[C@@](Cn4ccnc4)(c4ccc(Cl)cc4Cl)O3)cc2)CC1 [Entry 3a]		0.125 µM (≈ 0.0709 µg/mL)	
CCS(=O)(=O)N1CCN(c2ccc(OC[C@@H]3CO[C@@](Cn4ccnc4)(c4ccc(Cl)cc4Cl)O3)cc2)CC1 [Entry 3b]	0.5 µM (≈ 0.291 µg/mL)	0.125 µM (≈ 0.0727 µg/mL)	
CCCS(=O)(=O)N1CCN(c2ccc(OC[C@@H]3CO[C@@](Cn4ccnc4)(c4ccc(Cl)cc4Cl)O3)cc2)CC1 [Entry 3c]	0.5 µM (≈ 0.298 µg/mL)	0.125 µM (≈ 0.0744 µg/mL)	IC50 (human Cyp3A4): 75.6 nM
CC(C)S(=O)(=O)N1CCN(c2ccc(OC[C@@H]3CO[C@@](Cn4ccnc4)(c4ccc(Cl)cc4Cl)O3)cc2)CC1 [Entry 3d]			MIC75 C. albicans (C. albicans): complete loss of in vitro antifungal activity and N.E.; MIC75 C. glabrata (C. glabrata): complete loss of in vitro antifungal activity and N.E.
O=S(=O)(C1CC1)N1CCN(c2ccc(OCC3COC(Cn4ccnc4)(c4ccc(Cl)cc4Cl)O3)cc2)CC1 (stereo not shown) [Entry 3e]	0.8 µM (≈ 0.475 µg/mL)	0.8 µM (≈ 0.475 µg/mL)	
N#CCS(=O)(=O)N1CCN(c2ccc(OC[C@@H]3CO[C@@](Cn4ccnc4)(c4ccc(Cl)cc4Cl)O3)cc2)CC1 [Entry 3g]	0.5 µM (≈ 0.296 µg/mL)	0.25 µM (≈ 0.148 µg/mL)	
CS(=O)(=O)CS(=O)(=O)N1CCN(c2ccc(OC[C@@H]3CO[C@@](Cn4ccnc4)(c4ccc(Cl)cc4Cl)O3)cc2)CC1 [Entry 3h]	6.25 µM (≈ 4.03 µg/mL)	0.8 µM (≈ 0.516 µg/mL)	
O=S(=O)(N1CCN(c2ccc(OC[C@@H]3CO[C@@](Cn4ccnc4)(c4ccc(Cl)cc4Cl)O3)cc2)CC1)C(F)(F)F [Entry 3i]	1.6 µM (≈ 0.994 µg/mL)	0.8 µM (≈ 0.497 µg/mL)	
O=S(=O)(CC(F)(F)F)N1CCN(c2ccc(OC[C@@H]3CO[C@@](Cn4ccnc4)(c4ccc(Cl)cc4Cl)O3)cc2)CC1 [Entry 3j]	0.8 µM (≈ 0.508 µg/mL)	1.6 µM (≈ 1.02 µg/mL)	IC50 (human Cyp3A4): 450 nM
O=S(=O)(CCC(F)(F)F)N1CCN(c2ccc(OC[C@@H]3CO[C@@](Cn4ccnc4)(c4ccc(Cl)cc4Cl)O3)cc2)CC1 [Entry 3k]		1.6 µM (≈ 1.04 µg/mL)	MIC75 C. glabrata (C. glabrata): no effect and N.E.; IC50 (human Cyp3A4): 249 nM
O=S(=O)(CC(F)F)N1CCN(c2ccc(OC[C@@H]3CO[C@@](Cn4ccnc4)(c4ccc(Cl)cc4Cl)O3)cc2)CC1 [Entry 3l]	0.25 µM (≈ 0.154 µg/mL)	0.062 µM (≈ 0.0383 µg/mL)	improvement in selectivity (Cyp3A4 versus C. albicans) relative to (±)-Ketoconazole (2) (human Cyp3A4; 3l versus 2): 5 fold; window between Cyp3A4 inhibition and activity against C. albicans (human Cyp3A4; Cyp3A4 IC50 versus C. albicans MIC75): 2.6 fold; IC50 (human Cyp3A4): 162 nM
CC(=O)N1CCN(c2ccc(OC[C@@H]3CO[C@@](Cn4ccnc4)(c4ccc(Cl)cc4Cl)O3)cc2)CC1 [Entry 4, (2S, 4R)-Ketoconazole, reference compound]			MIC (C. albicans; Candida albicans): 0.125 µM (≈ 0.0664 µg/mL); MIC (C. glabrata; Nakaseomyces glabratus): 0.5 µM (≈ 0.266 µg/mL)
